Source: ChEMBL document CHEMBL5620406, “Synthesis and biological evaluation of novel pyrazole amides as potent mitochondrial complex I inhibitors” (Eur J Med Chem, 2023)

How the values were obtained:
[1] = Toxicity in NOD-SCID mouse xenografted with human KG-1 cells assessed as effect on liver damage at 5 mg/kg, ip qd administered 5 consecutive days per week for 24 days by H and E staining based analysis; format: organism-based; settings: in vivo, 576 h, time 24 day
NCM460 = assay: Antiproliferative activity against human NCM460 cells assessed as inhibition of cell growth incubated for 96 hrs by MTT assay; format: functional, cell-based; settings: NCM460, 96 h
[2] = Acute toxicity in BALB/c mouse assessed as lung damage at 40 to 68 mg/kg, ip measured on day 14 by H and E staining based analysis; format: organism-based; settings: in vivo, 336 h, dose 40-68 mg/kg, time 14 day
[3] = Acute toxicity in ip dosed BALB/c mouse assessed as maximum tolerated dose measured on day 14; format: organism-based; settings: in vivo, time 14 day
[4] = Acute toxicity in BALB/c mouse assessed as effect on ALP level at 68 mg/kg, ip measured on day 14; format: organism-based; settings: in vivo, 336 h, time 14 day
[5] = Toxicity in NOD-SCID mouse xenografted with human KG-1 cells assessed as effect on hematocrit level at 5 mg/kg, ip qd administered 5 consecutive days per week for 24 days; format: organism-based; settings: in vivo, 576 h, time 24 day
[6] = Acute toxicity in BALB/c mouse assessed as decrease in body weight at 68 mg/kg, ip measured for 6 days; format: organism-based; settings: in vivo, 144 h, time 6 day
[7] = Acute toxicity in BALB/c mouse assessed as decrease in behavioral activity at 68 mg/kg, ip measured for 6 days; format: organism-based; settings: in vivo, 144 h, time 6 day
[8] = Acute toxicity in BALB/c mouse assessed as decrease in body weight at 40 mg/kg, ip measured for 24 hrs; format: organism-based; settings: in vivo

| Compound | Activity [1] | IC50 (NCM460) [nM] | Activity [2] | MTD at 336 h [3] [mg/kg] | Activity [4] | Activity [5] | Activity [6] | Activity [7] | Activity [8] |
| --- | --- | --- | --- | --- | --- | --- | --- | --- | --- |
| Cc1cc(C(=O)Nc2ccc(C(F)(F)F)cc2)nn1Cc1cccc(N2CCN(C(=O)C3CC3)CC2)c1 | Non-Toxic | > 1000 | Non-Toxic | ~6 | Non-Toxic | Non-Toxic | Non-Toxic | Non-Toxic | Non-Toxic |
| Cc1cc(C(=O)Nc2ccc(OC(F)(F)F)cc2)nn1Cc1cccc(N2CCN(C(=O)C3CC3)CC2)c1 | Non-Toxic | > 1000 | Non-Toxic | ~6 | Non-Toxic | Non-Toxic | Non-Toxic | Non-Toxic | Non-Toxic |
